ChEMBL document CHEMBL1201862, “PubChem BioAssay data set” (2004)
Where “and” joins values, the source holds several entries; their conditions need not be identical. Identical values can stand only once.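 Cells were grown in 96-well plates and exposed to each compound for 48 hours at five concentrations; endpoints were interpolated linearly between bracketing concentrations, or set to the highest concentration if not reached. GI50 = concentration required for 50% inhibition of growth.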 Calls of active or inactive are those of the source. Rule as the data show it: active = GI50 up to about 1.1 µM and inactive = higher.

Columns and labels:
Test in all cases: DTP human tumour cell line panel, 48 h
U-251 = tested on: U-251
ACHN = tested on: ACHN
UO-31 = tested on: UO-31
OVCAR-8 = tested on: OVCAR-8
NCI-H226 = tested on: NCI-H226
SF-539 = tested on: SF-539
SK-MEL-2 = tested on: SK-MEL-2
KM12 = tested on: KM12
HCC 2998 = tested on: HCC 2998
CAKI-1 = tested on: CAKI-1
HCT-15 = tested on: HCT-15
MDA-N = tested on: MDA-N
RPMI-8226 = tested on: RPMI-8226
SNB-75 = tested on: SNB-75
Hs-578T = tested on: Hs-578T
SNB-19 = tested on: SNB-19
CCRF-CEM = tested on: CCRF-CEM
PC-3 = tested on: PC-3
MOLT-4 = tested on: MOLT-4
TK-10 = tested on: TK-10
LOX IMVI = tested on: LOX IMVI
MDA-MB-231 = tested on: MDA-MB-231
K562 = tested on: K562
OVCAR-5 = tested on: OVCAR-5
T47D = tested on: T47D
NCI-H460 = tested on: NCI-H460
HCT-116 = tested on: HCT-116
EKVX = tested on: EKVX
786-0 = tested on: 786-0
IGROV-1 = tested on: IGROV-1
RXF 393 = tested on: RXF 393
OVCAR-4 = tested on: OVCAR-4
UACC-62 = tested on: UACC-62
SW-620 = tested on: SW-620
SR = tested on: SR
SF-268 = tested on: SF-268
SK-MEL-5 = tested on: SK-MEL-5
SN12C = tested on: SN12C
HOP-92 = tested on: HOP-92
DU-145 = tested on: DU-145
UACC-257 = tested on: UACC-257
HT-29 = tested on: HT-29
M14 = tested on: M14
HOP-62 = tested on: HOP-62
NCI-H23 = tested on: NCI-H23
SK-MEL-28 = tested on: SK-MEL-28
A498 = tested on: A498
SK-OV-3 = tested on: SK-OV-3
HL-60 = tested on: HL-60
OVCAR-3 = tested on: OVCAR-3
A549 = tested on: A549
BT-549 = tested on: BT-549
Malme-3M = tested on: Malme-3M

SMILES: COc1ccc(-c2c(C#N)c(N)n(C3OC(CO)C(O)C(O)C3O)c(=S)c2C#N)cc1 (stereo not drawn)
- GI50 (U-251): > 100 µM (inactive)
- GI50 (ACHN): 87.9 µM (inactive) and 97.3 µM (inactive)
- GI50 (UO-31): 82.2 µM (inactive)
- GI50 (OVCAR-8): > 100 µM (inactive)
- GI50 (NCI-H226): > 100 µM (inactive)
- GI50 (SF-539): > 100 µM (inactive)
- GI50 (SK-MEL-2): 55.8 µM (inactive) and 30.4 µM (inactive)
- GI50 (KM12): > 100 µM (inactive)
- GI50 (HCC 2998): > 100 µM (inactive)
- GI50 (CAKI-1): > 100 µM (inactive)
- GI50 (HCT-15): > 100 µM
- GI50 (MDA-N): > 100 µM (inactive)
- GI50 (RPMI-8226): > 100 µM (inactive)
- GI50 (SNB-75): > 100 µM (inactive)
- GI50 (Hs-578T): 21.7 µM (inactive)
- GI50 (SNB-19): > 100 µM (inactive)
- GI50 (CCRF-CEM): > 100 µM (inactive)
- GI50 (PC-3): > 100 µM (inactive) and 99.1 µM (inactive)
- GI50 (MOLT-4): > 100 µM (inactive) and 68.2 µM (inactive)
- GI50 (TK-10): > 100 µM (inactive)
- GI50 (LOX IMVI): > 100 µM (inactive) and 77.4 µM (inactive)
- GI50 (MDA-MB-231): > 100 µM (inactive)
- GI50 (K562): > 100 µM (inactive)
- GI50 (OVCAR-5): > 100 µM (inactive)
- GI50 (T47D): > 100 µM (inactive) and 93.3 µM (inactive)
- GI50 (NCI-H460): 97.1 µM (inactive)
- GI50 (HCT-116): > 100 µM (inactive)
- GI50 (EKVX): 66.2 µM (inactive)
- GI50 (786-0): > 100 µM (inactive)
- GI50 (IGROV-1): 72.1 µM (inactive)
- GI50 (RXF 393): > 100 µM (inactive)
- GI50 (OVCAR-4): > 100 µM (inactive) and 67.9 µM (inactive)
- GI50 (UACC-62): > 100 µM (inactive)
- GI50 (SW-620): > 100 µM (inactive) and 73.1 µM (inactive)
- GI50 (SR): > 100 µM (inactive)
- GI50 (SF-268): > 100 µM (inactive)
- GI50 (SK-MEL-5): > 100 µM (inactive) and 74 µM (inactive)
- GI50 (SN12C): > 100 µM (inactive)
- GI50 (HOP-92): 20.2 µM (inactive)
- GI50 (DU-145): > 100 µM (inactive)
- GI50 (UACC-257): > 100 µM (inactive)
- GI50 (HT-29): > 100 µM (inactive)
- GI50 (M14): > 100 µM (inactive)
- GI50 (HOP-62): > 100 µM (inactive) and 51.9 µM (inactive)
- GI50 (NCI-H23): > 100 µM (inactive)
- GI50 (SK-MEL-28): > 100 µM (inactive)
- GI50 (A498): > 100 µM (inactive) and 52.6 µM (inactive)
- GI50 (SK-OV-3): > 100 µM (inactive)
- GI50 (HL-60): > 100 µM (inactive)
- GI50 (OVCAR-3): > 100 µM (inactive) and 97.7 µM (inactive)
- GI50 (A549): > 100 µM (inactive)
- GI50 (BT-549): > 100 µM (inactive) and 76.9 µM (inactive)
- GI50 (Malme-3M): > 100 µM (inactive)
